Assay results published in patent US20170304369A1, “METHODS OF DIFFERENTIATING STEM CELLS INTO LIVER CELL LINEAGES” (Agency for Science, Technology and Research, priority 2014, published 2017).

Assays:
hepatic progenitors = test: Treatment of hepatic progenitors (days 13-18), hepatocyte-like cell, periportal versus perivenous gene expression; format: cell-based, human
hPSC-derived DE = test: Foregut specification: treatment of hPSC-derived DE (day 3), downstream gene expression by RT-qPCR; format: cell-based, human; conditions: for downstream LB gene expression (AFP, CEBPA, TBX3, HNF1B) / expression of MHG markers CDX2 and EVX1: 24 h during foregut specification; for HNF6, PROX1 and HEX expression: Wnt inhibition during foregut specification
Excerpt: RT-quantitative PCR was used to quantify gene expression. […] During liver development, populations of definitive endoderm cells are first patterned along the anterior-posterior axis to form either the foregut or mid/hindgut. In the present invention the effects of signaling inhibition on the developmental competence of the foregut cells to give rise to the liver bud (LB) cells was examined. Competence is defined as the capacity of one stem cell or progenitor cell to differentiate into its daughter cell type. For example, the posterior foregut is competent when it could give rise to its daughter cell types such as the pancreatic endoderm and LB cells.

PFG cells = test: Liver bud (LB) specification from posterior foregut, days 4-6, gene expression; format: cell-based, human
Method: (§1) mTeSR1-grown hPSCs were cultured and differentiated as follows: • a) hPSCs cells were seeded at 1:12 as small clumps using Accutase (Millipore, Cat#SCR005) and Geltrex (Lifetech, Cat#A1413302). • b) Anterior Primitive Streak (day 1) was specified using Activin A (100 ng/ml), CHIR99021 (3 μM), PI-103 (50 nM) and Fgf2 (10 ng/ml) in serumless CDM2 basal medium for 24 hr. • c) Activin A (100 ng/ml) and DM3189 (250 nM) and PI-103 (50 nM) were added in the same basal medium for 24 hr to induce Definitive Endoderm (DE) (day 2). • d) DE was then patterned into PFG by using A83-01 (1 μM), RA (2 μM), BMP4 (30 ng/ml) and Fgf2 (10 ng/ml) in CDM KOSR basal media for another 24 hrs. • e) PFG was further differentiated to LB progenitors using Activin A (100 ng/ml), 8-bromo-CAMP (1 mM) and BMP4 (10 ng/ml) in CDM KOSR basal media for 3 days (day 4 to 6). • f) LB progenitors were treated with BMP4 (10 ng/ml), Oncostatin M (10 ng/ml), Dexamethasone ([…]), DAPT, C59 (1 μM) or RO4919097 (2 μM), forskolin ([…]), human recombinant insulin (10 μg/ml), ascorbic acid-2 phosphate (200 μg/ml), L-gluthathione ([…]) and amino acid concentrate and in IMDM/F12 media for the next 6 days (day 7 to 12) to induce hepatic progenitors. • g) Hepatic progenitors were treated with Dexamethasone (10 μM), RO4929097 (2 μM) or DAPT (10 μM), Forskolin (10 μM), human recombinant insulin (10 μg/ml), ascorbic acid-2 phosphate (200 μg/ml) in IMDM/F12 media for 6 days (day 13 to 18) to generate hepatocyte-like cells. Intra-Splenic Transplantation into FRG^−/− Mice
(§2) RNA was extracted using Zymo RNA extraction kit. RT-quantitative PCR was used to quantify gene expression. Primer sequences were designed by NCBI Primer Tool and primer specificity and linearity was tested before usage for gene expression analyses.
The signaling pathways, including Retinoic, Nodal/Activin, Bmp, PKA, FGF and Wnt signaling, were explored to determine if they could directly regulate LB specification.

hPSC-derived LB cells = test: Hepatic progenitor specification from hPSC-derived LB cells (days 7-12), liver gene expression
Method: as §1, §2
To identify the signals that regulate the progression of the LB progenitors from an ALB- to a more differentiated ALB+ state, multiple signaling pathways were systematically screened for their effects on ALB expression (including FGF, WNT, Notch, HGF, cAMP/PKA, TGFβ, and BMP).

In the case of `Cc1cc(-c2ccc(CC(=O)Nc3ccc(-c4cccnc4)cc3)cc2)ccn1` [C59, 2-(4-(2-methylpyridin-4-yl)phenyl)-N-(4-(pyridin-3-yl)phenyl)acetamide], the “expression of ALB, CYP3A7” value (hepatic progenitors) was “promotes”, the “downstream LB gene expression (AFP, CEBPA, TBX3, HNF1B)” value (hPSC-derived DE) was “severely reduces” and the “expression of MHG markers CDX2 and EVX1” value (hPSC-derived DE) was “reduces”. The “HNF6, PROX1 and HEX expression” value (hPSC-derived DE) was “upregulated”.

`COC(=O)[C@@]1(OC)C[C@H]2O[C@]1(C)n1c3ccccc3c3c4c(c5c6ccccc6n2c5c31)C(=O)N(C)C4` [KT5823, (9S,10R,12R)-2,3,9,10,11,12-Hexahydro-10-methoxy-2,9-dimethyl-1-oxo-9,12-epoxy-1H-diindolo[1,2,3-fg:3′,2′,1′-kl]pyrrolo[3,4-i][1,6]benzodiazocine-10-carboxylic acid, methyl ester] was tested, and the “expression of FAH, PAH, HGD, TAT, CPS1, ARG1, FBA, FBB and FBG” value (hepatic progenitors; PKG antagonists) was “upregulate”.

In the case of Activin: activator of TGFβ signaling, the periportal genes (hepatic progenitors) was “downregulation”, the “later expression of ALB in subsequent differentiation” value (PFG cells; 10 ng/ml during LB specification) was “increases” and the “HNF4A, HNF1A, and TBX3 levels” value (PFG cells; day 4 to 6) was “increases”. The “LB expression (AFP and CEBPA)” value (PFG cells; day 4 to 6) was “reduces”, the LB marker expression (PFG cells; increasing the dose) was “seems to reduce” and the “expression of ALB on day 13” value (PFG cells; treatment during LB specification (days 4-6)) was “enhances”.

“DKK1: Dickkopf 1, inhibitor of Wnt signaling” was tested, and the “expression of ALB, CYP3A7” value (hepatic progenitors) was “promotes”, the “downstream LB gene expression (AFP, CEBPA, TBX3, HNF1B)” value (hPSC-derived DE) was “severely reduces” and the “expression of MHG markers CDX2 and EVX1” value (hPSC-derived DE) was “reduces”. For the same molecule, the “HNF6, PROX1 and HEX expression” value (hPSC-derived DE) was “upregulated”.

“human recombinant insulin: activator of insulin signaling” was tested, and the “expression of ALB, CPS1 and CYP3A4” value (hPSC-derived LB cells) was “strongly enhanced”, the “expression of PAH, HGD, HPD, TAT, MAI, and FAH” value (hPSC-derived LB cells; days 7 to 12) was “significantly increases” and the “tyrosine metabolic genes and xenobiotic metabolic genes such as CYP3A4” value (hepatic progenitors) was “continues to enhance”.
